Source: US10414811B2, “Protease-resistant lipidated GLP-1 analogs” (MEDIMMUNE LIMITED, priority 2015, dated 2019)
Where two headings read alike, the source gives them in different places. Numbered stars: 1 amine (or outer) side, 2 acyl side, 3 side chain; on linkers, the order of the positions; unused ones are H or OH. Square brackets hold non-standard residues; d marks the D form. Side chains are listed from the residue outwards. Peptide text beside a SMILES is read from it. * marks the point of attachment. C18 diacid = O=C(O)CCCCCCCCCCCCCCCCC(=O)*; γGlu = O=C(O)[C@H](CCC(=O)[*:2])N[*:1]; Palmitoyl = CCCCCCCCCCCCCCCC(=O)*; αMeF = C[C@](N)(Cc1ccccc1)C(=O)O; αMeK = C[C@](N)(CCCCN)C(=O)O; Lauroyl = CCCCCCCCCCCC(=O)*; αMeS = C[C@](N)(CO)C(=O)O; AEEA = NCCOCCOCC(=O)O; Aib = CC(C)(N)C(=O)O

Columns and labels:
Assay type in all cases: cell-based
[1] = target: T1, human GLP-1 receptor (GLP-1R) (Homo sapiens, UniProt P43220); assay: cAMP assay, human GLP-1R cells
T1 construct: expressed in transfected cells
How it was run: (§1)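 Peptide-stimulated cAMP measured by two-step HTRF after a 30 min room-temperature incubation with receptor-expressing cells (hGLP-1R, hGIPR at 1×10^5 cells/ml; hGCGR at 2×10^5 cells/ml). Duplicate dilutions; EC50 from 4-parameter logistic fit of % Delta F.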

[2] = target: T2, human glucagon receptor (GCGR) (Homo sapiens, UniProt P47871); assay: cAMP assay, human GCGR cells
T2 construct: expressed in transfected cells
How it was run: as §1

[3] = target: T3, human glucose-dependent insulinotropic peptide receptor (GIPR) (Homo sapiens, UniProt P48546); assay: cAMP assay, human GIPR cells
T3 construct: expressed in transfected cells
T3 sequence (P48546 22-466): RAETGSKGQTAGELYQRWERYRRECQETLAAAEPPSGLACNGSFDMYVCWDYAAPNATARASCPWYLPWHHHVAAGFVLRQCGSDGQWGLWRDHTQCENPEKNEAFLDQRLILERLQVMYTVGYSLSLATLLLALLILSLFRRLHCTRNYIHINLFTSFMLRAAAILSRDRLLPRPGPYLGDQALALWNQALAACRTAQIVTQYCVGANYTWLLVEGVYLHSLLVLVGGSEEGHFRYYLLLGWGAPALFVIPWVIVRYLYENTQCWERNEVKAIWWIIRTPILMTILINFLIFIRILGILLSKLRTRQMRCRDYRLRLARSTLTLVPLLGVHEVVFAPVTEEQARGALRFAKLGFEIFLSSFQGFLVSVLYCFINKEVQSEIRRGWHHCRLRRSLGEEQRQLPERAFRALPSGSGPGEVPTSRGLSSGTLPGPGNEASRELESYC
How it was run: as §1

[4] = cAMP assay, first determination (n1), read-out: Primary assay EC50 GLP-1R n1
[5] = cAMP assay, second determination (n2), read-out: Primary assay EC50 GLP-1R n2
[6] = mean of n1 and n2, read-out: Mean pM GLP-1R
[7] = cAMP assay, first determination (n1), read-out: Primary assay EC50 Gluc-R (n1)
[8] = cAMP assay, second determination (n2), read-out: Primary assay EC50 Gluc-R (n2)
[9] = cAMP assay, first determination (n1), read-out: Primary assay EC50 GIP-R (n1)
[10] = cAMP assay, second determination (n2), read-out: Primary assay EC50 GIP-R (n2)
[11] = tris-lipidated peptides, mean of n1 and n2, read-out: Primary assay EC50 Mean pM GLP-1R
[12] = tris-lipidated peptides, replicate n1, read-out: Primary assay EC50 GLP-1R n1
[13] = tris-lipidated peptides, replicate n2, read-out: Primary assay EC50 GLP-1R n2
[14] = tris-lipidated peptides, first replicate, read-out: Primary assay EC50 GIP-R (n1)

T2 sequence (P47871 26-477): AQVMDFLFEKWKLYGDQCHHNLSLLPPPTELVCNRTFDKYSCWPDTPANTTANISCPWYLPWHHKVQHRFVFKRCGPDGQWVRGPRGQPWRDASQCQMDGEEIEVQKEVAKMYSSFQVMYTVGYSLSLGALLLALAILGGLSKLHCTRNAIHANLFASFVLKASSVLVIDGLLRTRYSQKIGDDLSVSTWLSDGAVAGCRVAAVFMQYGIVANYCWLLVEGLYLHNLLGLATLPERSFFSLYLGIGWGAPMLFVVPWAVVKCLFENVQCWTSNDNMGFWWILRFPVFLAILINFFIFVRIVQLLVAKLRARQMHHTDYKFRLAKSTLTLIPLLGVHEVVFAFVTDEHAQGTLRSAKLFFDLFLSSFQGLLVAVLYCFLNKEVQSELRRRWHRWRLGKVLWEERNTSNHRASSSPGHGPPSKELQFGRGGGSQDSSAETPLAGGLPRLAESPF
T1 sequence (P43220 24-463): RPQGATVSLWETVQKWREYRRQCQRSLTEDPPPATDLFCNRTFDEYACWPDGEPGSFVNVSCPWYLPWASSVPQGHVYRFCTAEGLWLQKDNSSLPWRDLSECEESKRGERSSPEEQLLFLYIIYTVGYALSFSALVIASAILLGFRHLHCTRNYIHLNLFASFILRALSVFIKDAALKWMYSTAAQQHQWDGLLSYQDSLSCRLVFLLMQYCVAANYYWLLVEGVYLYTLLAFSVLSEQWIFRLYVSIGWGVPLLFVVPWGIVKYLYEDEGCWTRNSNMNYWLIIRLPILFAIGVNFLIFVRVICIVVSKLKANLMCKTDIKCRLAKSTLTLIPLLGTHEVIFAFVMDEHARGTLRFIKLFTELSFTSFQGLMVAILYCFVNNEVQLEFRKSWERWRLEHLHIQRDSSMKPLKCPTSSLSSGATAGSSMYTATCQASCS

SMILES	EC50 [1, 4]	EC50 [1, 5]	EC50 [1, 6]	EC50 [2, 7]	EC50 [2, 8]	EC50 [3, 9]	EC50 [3, 10]	EC50 [1, 11]	EC50 [1, 12]	EC50 [1, 13]	EC50 ([2]; tris-lipidated peptides, first replicate, read-out: Primary assay EC50 Gluc-R (n1))	EC50 [3, 14]	EC50 ([2]; tris-lipidated peptides, second replicate, read-out: Primary assay EC50 Gluc-R (n2))
CCCCCCCCCCCC(=O)N[C@@H](CCC(=O)NCCOCCOCC(=O)NCCOCCOCC(=O)NCCCC[C@H](NC(=O)[C@H](CCC(=O)O)NC(=O)CNC(=O)[C@H](CCC(=O)O)NC(=O)[C@H](CCCCNC(=O)COCCOCCNC(=O)COCCOCCNC(=O)CC[C@H](NC(=O)CCCCCCCCCCC)C(=O)O)NC(=O)[C@H](Cc1ccc(O)cc1)NC(=O)[C@H](CO)NC(=O)[C@](C)(CO)NC(=O)[C@@H](NC(=O)[C@H](CC(=O)O)NC(=O)[C@H](CO)NC(=O)[C@@H](NC(=O)[C@](C)(Cc1ccccc1)NC(=O)[C@H](CO)NC(=O)CNC(=O)[C@H](CCC(=O)O)NC(=O)C(C)(C)NC(=O)[C@@H](N)Cc1c[nH]cn1)[C@@H](C)O)C(C)C)C(=O)N[C@@H](C)C(=O)N[C@@](C)(CCCCN)C(=O)N[C@@H](CCC(=O)O)C(=O)N[C@@H](Cc1ccccc1)C(=O)N[C@H](C(=O)N[C@@H](C)C(=O)N[C@@H](Cc1ccccc1)C(=O)N[C@@H](CCCCNC(=O)COCCOCCNC(=O)COCCOCCNC(=O)CC[C@H](NC(=O)CCCCCCCCCCC)C(=O)O)C(=O)N[C@H](C(=O)N[C@@H](CCC(=O)O)C(=O)NCC(=O)NCC(N)=O)C(C)C)[C@@H](C)CC)C(=O)O [compound 485] (H-H[Aib]EGS[αMeF]TSDV[αMeS]SYK([AEEA-AEEA-γGlu-Lauroyl])EGEK([AEEA-AEEA-γGlu-Lauroyl])A[αMeK]EFIAFK([AEEA-AEEA-γGlu-Lauroyl])VEGG-NH2)								195 pM	167 pM	224 pM	19.6 nM	19.6 nM	
CCCCCCCCCCCC(=O)N[C@@H](CCC(=O)NCCOCCOCC(=O)NCCOCCOCC(=O)NCCCC[C@H](NC(=O)CNC(=O)[C@H](CCC(=O)O)NC(=O)[C@H](CC(C)C)NC(=O)[C@H](Cc1ccc(O)cc1)NC(=O)[C@H](CO)NC(=O)[C@H](CO)NC(=O)[C@H](CCCCNC(=O)COCCOCCNC(=O)COCCOCCNC(=O)CC[C@H](NC(=O)CCCCCCCCCCC)C(=O)O)NC(=O)[C@H](CC(=O)O)NC(=O)[C@H](CO)NC(=O)[C@@H](NC(=O)[C@](C)(Cc1ccccc1)NC(=O)[C@H](CO)NC(=O)CNC(=O)[C@H](CCC(=O)O)NC(=O)C(C)(C)NC(=O)[C@@H](N)Cc1c[nH]cn1)[C@@H](C)O)C(=O)N[C@@H](C)C(=O)N[C@@H](C)C(=O)N[C@@](C)(CCCCN)C(=O)N[C@@H](CCC(=O)O)C(=O)N[C@@H](Cc1ccccc1)C(=O)N[C@H](C(=O)N[C@@H](CCCCNC(=O)COCCOCCNC(=O)COCCOCCNC(=O)CC[C@H](NC(=O)CCCCCCCCCCC)C(=O)O)C(=O)N[C@@H](Cc1ccccc1)C(=O)N[C@H](C(=O)N[C@H](C(=O)N[C@@H](CCC(=O)O)C(=O)NCC(=O)NCC(N)=O)C(C)C)C(C)C)[C@@H](C)CC)C(=O)O [compound 440] (H-H[Aib]EGS[αMeF]TSDK([AEEA-AEEA-γGlu-Lauroyl])SSYLEGK([AEEA-AEEA-γGlu-Lauroyl])AA[αMeK]EFIK([AEEA-AEEA-γGlu-Lauroyl])FVVEGG-NH2; N-terminus assumed)								130 pM	96.7 pM	164 pM		19.7 nM	19.7 nM
CC[C@H](C)[C@H](NC(=O)[C@](C)(Cc1ccccc1)NC(=O)[C@H](CCC(=O)O)NC(=O)[C@](C)(CCCCN)NC(=O)[C@H](C)NC(=O)[C@H](C)NC(=O)[C@H](CCC(=O)O)NC(=O)CNC(=O)[C@H](CCC(=O)O)NC(=O)[C@H](CC(C)C)NC(=O)[C@](C)(Cc1ccccc1)NC(=O)[C@H](CO)NC(=O)[C@](C)(CO)NC(=O)[C@@H](NC(=O)[C@H](CC(=O)O)NC(=O)[C@H](C)NC(=O)[C@@H](NC(=O)[C@](C)(Cc1ccccc1)NC(=O)[C@H](CO)NC(=O)CNC(=O)[C@H](CCC(=O)O)NC(=O)C(C)(C)NC(=O)[C@@H](N)Cc1c[nH]cn1)[C@@H](C)O)C(C)C)C(=O)N[C@@H](C)C(=O)N[C@@](C)(Cc1ccccc1)C(=O)N[C@H](C(=O)N[C@H](C(=O)N[C@@](C)(CCCCN)C(=O)NCC(=O)NCC(N)=O)C(C)C)C(C)C [compound 26] (H-H[Aib]EGS[αMeF]TADV[αMeS]S[αMeF]LEGEAA[αMeK]E[αMeF]IA[αMeF]VV[αMeK]GG-NH2)	99 pM	150 pM	123 pM	≥ 100 nM	30 nM	≥ 100 nM	≥ 100 nM						
CC[C@H](C)[C@H](NC(=O)[C@](C)(Cc1ccccc1)NC(=O)[C@H](CCC(=O)O)NC(=O)[C@](C)(CCCCN)NC(=O)[C@H](C)NC(=O)[C@H](C)NC(=O)[C@H](CCC(=O)O)NC(=O)CNC(=O)[C@H](CCC(=O)O)NC(=O)[C@H](CC(C)C)NC(=O)[C@](C)(Cc1ccccc1)NC(=O)[C@H](CO)NC(=O)[C@](C)(CO)NC(=O)[C@@H](NC(=O)[C@H](CC(=O)O)NC(=O)[C@H](CO)NC(=O)[C@@H](NC(=O)[C@](C)(Cc1ccccc1)NC(=O)[C@H](CO)NC(=O)CNC(=O)[C@H](CCCCNC(=O)COCCOCCNC(=O)COCCOCCNC(=O)CC[C@H](NC(=O)CCCCCCCCCCCCCCCCC(=O)O)C(=O)O)NC(=O)C(C)(C)NC(=O)[C@@H](N)Cc1c[nH]cn1)[C@@H](C)O)C(C)C)C(=O)N[C@@H](C)C(=O)N[C@@](C)(Cc1ccccc1)C(=O)N[C@H](C(=O)N[C@H](C(=O)N[C@@](C)(CCCCN)C(=O)NCC(=O)NCC(N)=O)C(C)C)C(C)C [compound 126] (H-H[Aib]K([AEEA-AEEA-γGlu-C18 diacid])GS[αMeF]TSDV[αMeS]S[αMeF]LEGEAA[αMeK]E[αMeF]IA[αMeF]VV[αMeK]GG-NH2; N-terminus assumed)	≥ 25000 pM	≥ 25400 pM	≥ 25400 pM	≥ 25 nM	≥ 25.4 nM	≥ 25 nM	≥ 25.4 nM						

More lines, now with the values ahead:

EC50 [1, 4]	EC50 [1, 5]	EC50 [1, 6]	EC50 [2, 7]	EC50 [2, 8]	EC50 [3, 9]	EC50 [3, 10]	EC50 [1, 11]	EC50 [1, 12]	EC50 [1, 13]	EC50 ([2]; tris-lipidated peptides, first replicate, read-out: Primary assay EC50 Gluc-R (n1))	EC50 [3, 14]	EC50 ([2]; tris-lipidated peptides, second replicate, read-out: Primary assay EC50 Gluc-R (n2))	SMILES
920 pM	570 pM	746 pM	≥ 27 nM	≥ 27 nM	≥ 27 nM	≥ 27 nM							CCCCCCCCCCCCCCCC(=O)N[C@@H](CCC(=O)NCCCC[C@H](NC(=O)[C@H](CCC(=O)O)NC(=O)C(C)(C)NC(=O)[C@@H](N)Cc1c[nH]cn1)C(=O)N[C@@H](CO)C(=O)N[C@@](C)(Cc1ccccc1)C(=O)N[C@H](C(=O)N[C@@H](CO)C(=O)N[C@@H](CC(=O)O)C(=O)N[C@H](C(=O)N[C@@](C)(CO)C(=O)N[C@@H](CO)C(=O)N[C@@](C)(Cc1ccccc1)C(=O)N[C@@H](CC(C)C)C(=O)N[C@@H](CCC(=O)O)C(=O)NCC(=O)N[C@@H](CCC(=O)O)C(=O)N[C@@H](C)C(=O)N[C@@H](C)C(=O)N[C@@](C)(CCCCN)C(=O)N[C@@H](CCC(=O)O)C(=O)N[C@@](C)(Cc1ccccc1)C(=O)N[C@H](C(=O)N[C@@H](C)C(=O)N[C@@](C)(Cc1ccccc1)C(=O)N[C@H](C(=O)N[C@H](C(=O)N[C@@](C)(CCCCN)C(=O)NCC(=O)NCC(N)=O)C(C)C)C(C)C)[C@@H](C)CC)C(C)C)[C@@H](C)O)C(=O)O [compound 96] (H-H[Aib]EK([γGlu-Palmitoyl])S[αMeF]TSDV[αMeS]S[αMeF]LEGEAA[αMeK]E[αMeF]IA[αMeF]VV[αMeK]GG-NH2; N-terminus assumed)
14 pM	9.9 pM	11.7 pM	≥ 29 nM	≥ 29 nM	≥ 29 nM	≥ 29 nM							CCCCCCCCCCCC(=O)NCCCCCC(=O)NCCCC[C@H](NC(=O)[C@H](C)NC(=O)[C@H](C)NC(=O)[C@H](CCC(=O)O)NC(=O)CNC(=O)[C@H](CCC(=O)O)NC(=O)[C@H](CC(C)C)NC(=O)[C@](C)(Cc1ccccc1)NC(=O)[C@H](CO)NC(=O)[C@](C)(CO)NC(=O)[C@@H](NC(=O)[C@H](CC(=O)O)NC(=O)[C@H](CO)NC(=O)[C@@H](NC(=O)[C@](C)(Cc1ccccc1)NC(=O)[C@H](CO)NC(=O)CNC(=O)[C@H](CCC(=O)O)NC(=O)C(C)(C)NC(=O)[C@@H](N)Cc1c[nH]cn1)[C@@H](C)O)C(C)C)C(=O)N[C@@H](CCC(=O)O)C(=O)N[C@@](C)(Cc1ccccc1)C(=O)N[C@H](C(=O)N[C@@H](C)C(=O)N[C@@](C)(Cc1ccccc1)C(=O)N[C@H](C(=O)N[C@H](C(=O)N[C@@](C)(CCCCN)C(=O)NCC(=O)NCC(N)=O)C(C)C)C(C)C)[C@@H](C)CC [compound 131]
